Measurements from patent US20090215850A1, “METHOD FOR TREATING CB2 RECEPTOR MEDIATED PAIN” (priority 2008, published 2009).

Columns and labels:
CB2 receptor = target: T1, CB2 receptor (Rattus norvegicus, UniProt Q9QZN9); details: background statement; cited from earlier work
T1 sequence (Q9QZN9 1-360): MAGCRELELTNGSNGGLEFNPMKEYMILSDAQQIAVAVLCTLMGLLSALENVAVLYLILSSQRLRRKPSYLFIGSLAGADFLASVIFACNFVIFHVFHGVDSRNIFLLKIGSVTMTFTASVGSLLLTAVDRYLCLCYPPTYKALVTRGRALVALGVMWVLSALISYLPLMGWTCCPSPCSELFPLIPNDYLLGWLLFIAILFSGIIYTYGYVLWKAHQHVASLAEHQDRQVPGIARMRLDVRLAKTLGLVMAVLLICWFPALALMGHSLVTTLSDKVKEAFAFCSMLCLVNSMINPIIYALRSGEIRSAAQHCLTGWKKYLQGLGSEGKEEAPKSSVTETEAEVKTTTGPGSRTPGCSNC

male Sprague-Dawley rats [1] = assay: Carrageenan model of inflammatory pain, radiant heat paw withdrawal, compound given before carrageenan (Example 1); format: in vivo, rat; details: seconds±SEM
Description: Intraplantar injection of carrageenan (Cg) in a rodent produces pronounced hypersensitivity to both thermal and mechanical stimuli. The effects of carrageenan are maximal 2-4 hr after administration.
(§1) To assess the ability of test compounds to reverse thermal hyperalgesia, baseline response latencies on a radiant heat (RH) paw stimulator were obtained before an intraplantar injection of carrageenan-λ (200 μL) in male Sprague-Dawley rats (250-350 g in treatment groups of 9 animals each). Only withdrawal responses that were quick hind paw movements (with or without licking of the hind paw) were recorded. Paw movements associated with locomotion or a shifting of weight were not considered a withdrawal response.
(§2) The weight of each animal was recorded on the day of the experiment. Each animal was placed on a warm (approx. body temperature, 30° C.) glass surface and allowed to acclimate to the test chamber for approximately 10-15 minutes. A radiant thermal stimulus (beam of light) was then focused on the sole of each hind paw in turn, and an initial (baseline) response time to thermal stimuli was recorded for each animal. The stimulus intensity (radiant heat at a setting of 5 Amps) that produced 10-15 sec baseline withdrawal latencies was used and a maximum cutoff of 20 sec was imposed. The light stimulus was automatically shut off by a photoelectric relay when the foot moved or when the cut-off time limit was reached.
One treatment group (8 animals each) was injected i.p. with vehicle (5% DMSO and 5% Tween-80 in sterile saline). The other treatment groups (8 animals each) were injected i.p. with 3, 10 or 30 mg/kg Compound 2.
One hour later, withdrawal latencies for the animals administered vehicle were recorded. After assessment, all animals were administered 1% carrageenan (200 μL in sterile saline) subcutaneously into the sub-plantar tissue of the left hind paw to stimulate an acute inflammatory reaction. Three hours later, the response time of the animals to the thermal stimulus was evaluated.

male Sprague-Dawley rats [2] = assay: Carrageenan model of inflammatory pain, radiant heat paw withdrawal, compound given 2.5 hr after carrageenan (Example 2); format: in vivo, rat; details: 30 min after compound, seconds±SEM
Description: as §1, §2
The experiment of Example 1 is repeated with the exception that animals are first administered 1% carrageenan (200 μL in sterile saline) subcutaneously into the sub-plantar tissue of the left hind paw to stimulate an acute inflammatory reaction.
Two and a half hours later, withdrawal latencies are assessed (‘post-Cg’). One treatment group is then injected i.p. with vehicle (5% DMSO and 5% Tween-80 in sterile saline). The other treatment groups are injected i.p. with 3, 10 or 30 mg/kg of Compound 2. Thirty minutes after test compound administration withdrawal latencies are recorded.

Row | SMILES | antinociception to thermal stimuli (CB2 receptor) | response time (withdrawal latency) to thermal stimulus, 3 hrs post Cg administration (male Sprague-Dawley rats [1]; 3 mg/kg i.p. 1 hr before 1% carrageenan) | response time (withdrawal latency) to thermal stimulus, 3 hrs post Cg administration (male Sprague-Dawley rats [1]; 10 mg/kg i.p. 1 hr before 1% carrageenan) | response time (withdrawal latency) to thermal stimulus, 3 hrs post Cg administration (male Sprague-Dawley rats [1]; 30 mg/kg i.p. 1 hr before 1% carrageenan) | withdrawal latency, 3 hrs post Cg administration (male Sprague-Dawley rats [2]; 3 mg/kg i.p. 2.5 hr after 1% carrageenan) | withdrawal latency, 3 hrs post Cg administration (male Sprague-Dawley rats [2]; 10 mg/kg i.p. 2.5 hr after 1% carrageenan) | withdrawal latency, 3 hrs post Cg administration (male Sprague-Dawley rats [2]; 30 mg/kg i.p. 2.5 hr after 1% carrageenan)
1 | CN1CCCCC1Cn1cc(C(=O)c2cc([N+](=O)[O-])ccc2I)c2ccccc21 (stereo not shown) [AM1241] | produces antinociception |  |  |  |  |  | 
2 | O=C(NCC12CC3CC(CC(C3)C1)C2)c1nn(C2CCCCC2)c2c1CCCCCC2 [Compound 2, 1-cyclohexyl-4,5,6,7,8,9-hexahydro-1H-cyclooctapyrazole-3-carboxylic acid (adamantan-1-ylmethyl)-amide] |  | 5.11 ± 0.84 s | 6.18 ± 0.91 s | 14.41 ± 1.75 s | 5.92 ± 1.15 s | 6.88 ± 0.44 s | 8.52 ± 1.08 s
